Source: PubChem BioAssay (NCI)
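A five-concentration, 48-hour dose response in 96-well plates underlies each endpoint, interpolated linearly between surrounding concentrations. TGI marks complete inhibition of growth.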

What was measured:
Experiment in all cases: growth of human tumour cells (NCI), 48 h
CAKI-1 renal = test system: CAKI-1 renal
RXF 393 renal = test system: RXF 393 renal
SK-MEL-2 melanoma = test system: SK-MEL-2 melanoma
OVCAR-3 ovarian = test system: OVCAR-3 ovarian
HT29 colon = test system: HT29 colon
KM12 colon = test system: KM12 colon
OVCAR-8 ovarian = test system: OVCAR-8 ovarian
SK-MEL-28 melanoma = test system: SK-MEL-28 melanoma
TK-10 renal = test system: TK-10 renal
LOX IMVI melanoma = test system: LOX IMVI melanoma
NCI/ADR-RES ovarian = test system: NCI/ADR-RES ovarian
SK-MEL-5 melanoma = test system: SK-MEL-5 melanoma
HCT-15 colon = test system: HCT-15 colon
SF-295 CNS = test system: SF-295 CNS
EKVX NSCLC = test system: EKVX NSCLC
MCF7 breast = test system: MCF7 breast
SK-OV-3 ovarian = test system: SK-OV-3 ovarian
HCC-2998 colon = test system: HCC-2998 colon
SN12C renal = test system: SN12C renal
K-562 leukemia = test system: K-562 leukemia
SNB-19 CNS = test system: SNB-19 CNS
HOP-62 NSCLC = test system: HOP-62 NSCLC
CCRF-CEM leukemia = test system: CCRF-CEM leukemia
SF-268 CNS = test system: SF-268 CNS
SW-620 colon = test system: SW-620 colon
MALME-3M melanoma = test system: MALME-3M melanoma
MOLT-4 leukemia = test system: MOLT-4 leukemia
COLO 205 colon = test system: COLO 205 colon
RPMI-8226 leukemia = test system: RPMI-8226 leukemia
HOP-92 NSCLC = test system: HOP-92 NSCLC
OVCAR-4 ovarian = test system: OVCAR-4 ovarian
M14 melanoma = test system: M14 melanoma
786-0 renal = test system: 786-0 renal
NCI-H522 lung = test system: NCI-H522 lung
UACC-62 melanoma = test system: UACC-62 melanoma
U251 CNS = test system: U251 CNS
DU-145 prostate = test system: DU-145 prostate
HL-60(TB) leukemia = test system: HL-60(TB) leukemia
NCI-H460 lung = test system: NCI-H460 lung
ACHN renal = test system: ACHN renal
UACC-257 melanoma = test system: UACC-257 melanoma
HCT-116 colon = test system: HCT-116 colon
MDA-N = test system: MDA-N
OVCAR-5 ovarian = test system: OVCAR-5 ovarian
HS 578T breast = test system: HS 578T breast
T-47D breast = test system: T-47D breast
MDA-MB-435 = test system: MDA-MB-435
BT-549 breast = test system: BT-549 breast
MDA-MB-231 breast = test system: MDA-MB-231 breast
NCI-H23 lung = test system: NCI-H23 lung
PC-3 prostate = test system: PC-3 prostate
A498 renal = test system: A498 renal
SF-539 CNS = test system: SF-539 CNS
IGROV1 ovarian = test system: IGROV1 ovarian
A549 NSCLC = test system: A549 NSCLC

Compound: CC[C@@H]1CN2CCC1C[C@@H]2C(O)c1ccnc2ccc(OCCN3CCN(CCOc4ccc5nccc(C(O)[C@@H]6C[C@@H]7CCN6C[C@@H]7CC)c5c4)CC3)cc12 (stereo not given in full)
- TGI (CAKI-1 renal): 32.5 µM
- TGI (RXF 393 renal): 34.2 µM
- TGI (SK-MEL-2 melanoma): 37.2 µM
- TGI (OVCAR-3 ovarian): 36 µM
- TGI (HT29 colon): 30.2 µM
- TGI (KM12 colon): 34 µM
- TGI (OVCAR-8 ovarian): 42.6 µM
- TGI (SK-MEL-28 melanoma): 35.5 µM
- TGI (TK-10 renal): 29.1 µM
- TGI (LOX IMVI melanoma): 38.5 µM
- TGI (NCI/ADR-RES ovarian): > 100 µM
- TGI (SK-MEL-5 melanoma): 32 µM
- TGI (HCT-15 colon): 56.2 µM
- TGI (SF-295 CNS): 30.5 µM
- TGI (EKVX NSCLC): 31.2 µM
- TGI (MCF7 breast): 31.8 µM
- TGI (SK-OV-3 ovarian): 33.2 µM
- TGI (HCC-2998 colon): 26.2 µM
- TGI (SN12C renal): 28.9 µM
- TGI (K-562 leukemia): 6.2 µM
- TGI (SNB-19 CNS): 27.9 µM
- TGI (HOP-62 NSCLC): 36.2 µM
- TGI (CCRF-CEM leukemia): 15.7 µM
- TGI (SF-268 CNS): 41.2 µM
- TGI (SW-620 colon): 55.6 µM
- TGI (MALME-3M melanoma): 54.1 µM
- TGI (MOLT-4 leukemia): 21.7 µM
- TGI (COLO 205 colon): 33.1 µM
- TGI (RPMI-8226 leukemia): 8.45 µM
- TGI (HOP-92 NSCLC): 22.8 µM
- TGI (OVCAR-4 ovarian): 40.8 µM
- TGI (M14 melanoma): 26.2 µM
- TGI (786-0 renal): 30.2 µM
- TGI (NCI-H522 lung): 61.8 µM
- TGI (UACC-62 melanoma): 30.5 µM
- TGI (U251 CNS): 33.1 µM
- TGI (DU-145 prostate): 31.8 µM
- TGI (HL-60(TB) leukemia): 47.6 µM
- TGI (NCI-H460 lung): 38.4 µM
- TGI (ACHN renal): 28.8 µM
- TGI (UACC-257 melanoma): 32.1 µM
- TGI (HCT-116 colon): 28.3 µM
- TGI (MDA-N): 27.1 µM
- TGI (OVCAR-5 ovarian): 32.9 µM
- TGI (HS 578T breast): 46.6 µM
- TGI (T-47D breast): 42.1 µM
- TGI (MDA-MB-435): 28 µM
- TGI (BT-549 breast): 40.9 µM
- TGI (MDA-MB-231 breast): 31.3 µM
- TGI (NCI-H23 lung): 43.7 µM
- TGI (PC-3 prostate): 30.3 µM
- TGI (A498 renal): 37 µM
- TGI (SF-539 CNS): 36.7 µM
- TGI (IGROV1 ovarian): 36.7 µM
- TGI (A549 NSCLC): 29.8 µM
